The subject of the data set is human liver microsomes, LC/MS/MS parent remaining, 60 min. In words: metabolic stability in human liver microsomes, late-stage follow-up, ADME assay, biochemical (AID 1555). The settings on record: at 1 µM, stronger effect = lower value. A general note: Liver microsomes are vesicles of endoplasmic reticulum, rich in cytochrome P450 enzymes.

`C=CCn1c(SCC(=O)c2ccc(O)c(O)c2)nnc1-c1ccccc1OC`: the percent remaining is 47%. The percent remaining (measured here: remaining without NADPH control) worked out at 100%.

For the origin of these results see PubChem BioAssay AID1555 (Sanford-Burnham Center for Chemical Genomics, 2009).
